# According to patent publication US5739163A, “Aromatic compounds containing basic and acidic termini useful as fibrinogen receptor antagonists” (The DuPont Merck Pharmaceutical Company, priority 1996, dated 1998):
# Structures can show the parent of a compound that is named as a salt.
# Tested on: agonist-induced platelet aggregation
# Test: Platelet Aggregation Assay
# Format: cell-based
# Details: Homo sapiens, Platelet, human platelet-rich plasma, class symbols
# Description: Platelet Aggregation Assay: Venous blood was obtained from the arm of a healthy human donor who was drug-free and aspirin-free for at least two weeks prior to blood collection. Blood was collected into 10 mL citrated Vacutainer tubes. The blood was centrifuged for 15 minutes at 150×g at room temperature, and platelet-rich plasma (PRP) was removed. The remaining blood was centrifuged for 15 minutes at 1500×g at room temperature, and platelet-poor plasma (PPP) was removed. […] The results are expressed as % inhibition of agonist-induced platelet aggregation. For the IC50 evaluation, the test compounds were added at various concentrations prior to the activation of the platelets.
row,Compound,IC50
1,"COc1cc(/C=C/C(=O)c2cccc(CNC(=N)N)c2)ccc1OCC(=O)O [Example 112, (E)-4-[3-((3-(guanidinylmethyl)phenyl))-3-oxo-1-propenyl]-2-methoxyphenoxyacetic acid.trifluoroacetate]",10 to 50 µM
2,"COc1cc(OCC(=O)O)ccc1/C=C/C(=O)c1cccc(OCCN)c1 [Example 65, (E)-4-[3-((3-(2-Aminoethoxy)phenyl))-3-oxo-1-propenyl]-3-methoxyphenoxyacetic acid.hydrochloride]",10 to 50 µM
3,COC(=O)c1cc(/C=C/C(=O)c2cccc(OCCN)c2)ccc1OCC(=O)O [Example 30],10 to 50 µM
4,"CCOc1cc(/C=C/C(=O)c2cccc(OCCN)c2)ccc1OCC(=O)O [Example 22, (E)-4-[3-((3-(2-Aminoethoxy)phenyl))-3-oxo-1-propenyl]-2-ethoxyphenoxyacetic acid.trifluoroacetate]",< 10 µM
5,"C=CCOc1ccc(OCCN)cc1C(=O)/C=C/c1ccc(OCC(=O)O)c(C(=O)OCC(=O)O)c1 [Example 44, (E)-(Carboxymethyl) 5-((3-((2-(1-prop-2-enyloxy)-5-(2-aminoethoxy)phenyl))-3-oxo-1-propenyl))-2-(carboxymethoxy)benzoate.trifluoroacetate]",< 10 µM
6,"CCOc1cc(/C=C/C(=O)c2cccc(CCN)c2)ccc1OCC(=O)O [Example 91, (E)-4-[3-((3-(2-Aminoethyl)phenyl))-3-oxo-1-propenyl]-2-ethoxyphenoxyaceticacid trifluoroacetate]",51 to 100 µM
7,"CNCCOc1cccc(C(=O)/C=C/c2ccc(OCC(=O)O)c(OC)c2)c1 [Example 121, (E)-4-[[3-[3-((2-(methylamino)ethoxy))-phenyl]-3-oxo-1-propenyl]]-2-methoxyphenoxyacetic acid.trifluoroacetate]",10 to 50 µM
8,"NCCOc1cccc(C(=O)/C=C/c2ccc(OCC(=O)O)c(C(=O)OCc3ccccc3)c2)c1 [Example 28, (E)-Benzyl 5-[3-((3-(2-aminoethoxy)phenyl))-3-oxo-1-propenyl]-2-(carboxymethoxy)benzoate.trifluoroacetate]",51 to 100 µM
9,"NCCOc1cccc(C(=O)/C=C/c2ccc(OCC(=O)O)c(C(=O)OCC(=O)O)c2)c1 [Example 25, (E)-(Carboxymethyl) 5-[3-((3-(2aminoethoxy)-phenyl))-3-oxo-1-propenyl]-2-(carboxymethoxy)benzoate.trifluoroacetate]",< 10 µM
10,"CCOC(=O)c1cc(/C=C/C(=O)c2cc(OCC)cc(OCCN)c2)ccc1OCC(=O)O [Example 20, (E)-Ethyl 5-[3-((3-(2-aminoethoxy)-5-ethoxyphenyl))-3-oxo-1-propenyl]-2-(carboxymethoxy)benzoate.trifluoroacetate]",10 to 50 µM
11,NCc1cccc(C(=O)/C=C/c2ccc(OCC(=O)O)c(OCC(=O)O)c2)c1 [Example 76],51 to 100 µM
12,"C=CCOc1ccc(OCCN)cc1C(=O)/C=C/c1ccc(OCC(=O)O)c(C(=O)OCC)c1 [Example 3, (E)-Ethyl 5-[3-((2-(1-prop-2-enyloxy)-5-(2aminoethoxy)phenyl))-3-oxo-1-propenyl]-2-(carboxymethoxy)benzoate.trifluoroacetate]",< 10 µM
13,COc1cc(/C=C/C(=O)c2cccc(OCCN)c2)ccc1OCC(=O)O [Example 23],< 10 µM
14,"NCCOc1cccc(C(=O)CCc2ccc(OCC(=O)O)cc2)c1 [Example 126, 4-[3-((3-(2-Aminoethoxy)phenyl))-3-oxo-1-propyl]phenoxyacetic acid.hydrochloride]",51 to 100 µM
15,NCCOc1ccc(OCc2ccccc2)c(C(=O)/C=C/c2ccc(OCC(=O)O)c(C(=O)OCC(=O)O)c2)c1 [Example 43],< 10 µM
16,"CCOC(=O)COC(=O)c1cc(/C=C/C(=O)c2cccc(OCCN)c2)ccc1OCC(=O)O [Example 27, (E)-(2-Ethoxy-2-oxoethyl) 5-[3-((3-(2-amino-ethoxy)phenyl))-3-oxo-1-propenyl]-2-(carboxymethoxy)-benzoate.trifluoroacetate]",51 to 100 µM
17,NCCOc1cccc(C(=O)/C=C/c2ccc(OCC(=O)O)c(-c3ccccc3)c2)c1 [Example 75c],51 to 100 µM
18,"NCCOc1cccc(C(=O)/C=C/c2ccc(OCC(=O)O)c(OCC(=O)O)c2)c1 [Example 29, (E)-4-[3-((3-(2-Aminoethoxy)phenyl))-3-oxo-1-propenyl]benzene-1,2-bis(oxyacetic acid).trifluoroacetate]",10 to 50 µM
19,"CCCCOC(=O)c1cc(/C=C/C(=O)c2cccc(OCCN)c2)ccc1OCC(=O)O [Example 24, (E)-n-Butyl 5-[3-((3-(2-aminoethoxy)-phenyl))-3-oxo-1-propenyl]-2-(carboxymethoxy)benzoate-trifluoroacetate]",10 to 50 µM
20,COc1cc(/C=C/C(=O)c2cccc(N3CCNCC3)c2)ccc1OCC(=O)O [Example 120],< 10 µM
21,"CCOc1cc(OCCN)cc(C(=O)/C=C/c2ccc(OCC(=O)O)cc2)c1 [Example 21, (E)-4-[3-((3-(2-Aminoethoxy)-5-ethoxyphenyl))-3-oxo-1-propenyl]phenoxyacetic acid.trifluoroacetate]",10 to 50 µM
22,"CCOC(=O)c1cc(/C=C/C(=O)c2cccc(OCCN)c2)ccc1OCC(=O)O [Example 2, (E)-Ethyl 5-[3-((3-(2-aminoethoxy)phenyl))-3-oxo-1-propenyl]-2-(carboxymethoxy)benzoate.trifluoroacetate]",10 to 50 µM
23,"NCCOc1cccc(C(=O)/C=C/c2ccc(OCC(=O)O)c([N+](=O)[O-])c2)c1 [Example 26, (E)-4-[3-((3-(2-Aminoethoxy)phenyl))-3-oxo-1-propenyl]-2-nitrophenoxyacetic acid.trifluoroacetate]",< 10 µM

# Same assay, conditions: Homo sapiens, Platelet, human platelet-rich plasma, numeric bound
row,Compound,IC50
1,NCc1cccc(C(=O)/C=C/c2cccc(OCC(=O)O)c2)c1 [Example 244],> 100 µM
2,NCc1cccc(C(=O)/C=C/c2ccc(OCC(=O)O)cc2)c1 [Example 125a],> 100 µM
3,NCCc1cccc(C(=O)/C=C/c2ccc(OCC(=O)O)c([N+](=O)[O-])c2)c1 [Example 93],> 100 µM
4,CN(C)CCOc1cccc(C(=O)/C=C/c2cccc(C(=O)O)c2)c1 [Example 248],> 100 µM
5,NCCOc1cccc(C(=O)/C=C/c2ccc(OCCC(=O)O)cc2)c1 [Example 242],> 100 µM
6,NCCc1cccc(C(=O)/C=C/c2ccc([N+](=O)[O-])c(OCC(=O)O)c2)c1 [Example 240],> 100 µM
7,NCc1ccc(C(=O)/C=C/c2ccc(CCC(=O)O)cc2)cc1 [Example 245],> 100 µM
8,C=CCc1cc(/C=C/C(=O)c2cccc(OCCN)c2)cc(C(=O)OC)c1OCC(=O)O [Example 75b],> 100 µM
9,"COc1cc(C(=O)/C=C/c2cccc(OCCN)c2)ccc1OCC(=O)O [Example 211, (E)-4-[3-((3-(2-aminoethoxy)phenyl))-1-oxo-prop-2-enyl]-2-methoxyphenoxyacetic acid.trifluoroacetate]",> 100 µM
10,NCc1ccc(C(=O)/C=C/c2ccc(OCC(=O)O)c([N+](=O)[O-])c2)cc1 [Example 250],> 100 µM
11,NCCCCc1ccc(C(=O)/C=C/c2ccc(OCC(=O)O)cc2)cc1 [Example 241],> 100 µM
12,CCOC(=O)c1cc(/C=C/C(=O)c2cccc(C#CCN)c2)ccc1OCC(=O)O [Example 247],> 100 µM
13,CCOC(=O)c1cc(/C=C/C(=O)c2ccccc2OCCCN)ccc1OCC(=O)O [Example 251],> 100 µM
14,COc1ccc(/C=C/C(=O)c2cccc(OCCN)c2)cc1CC(=O)O [Example 252],> 100 µM
15,NCCCCc1ccc(C(=O)/C=C/c2ccc(CCC(=O)O)cc2)cc1 [Example 243],> 100 µM

# Same assay, conditions: human platelet-rich plasma, 100 μM
row,Compound,inhibition at 100 µM
1,NCCc1cccc(C(=O)/C=C/c2ccc(OCC(=O)O)c([N+](=O)[O-])c2)c1 [Example 93],21%
2,CN(C)CCOc1cccc(C(=O)/C=C/c2cccc(C(=O)O)c2)c1 [Example 248],13%
3,NCc1ccc(C(=O)/C=C/c2ccc(CCC(=O)O)cc2)cc1 [Example 245],19%
4,CCOC(=O)c1cc(/C=C/C(=O)c2ccccc2OCCCN)ccc1OCC(=O)O [Example 251],18%
5,COc1ccc(/C=C/C(=O)c2cccc(OCCN)c2)cc1CC(=O)O [Example 252],38%

# Same assay, conditions: human platelet-rich plasma, class symbols
row,Compound,IC50
1,NCCOc1cccc(C(=O)/C=C/c2ccc(OCC(=O)O)cc2)c1 [Example 75a],51 to 100 µM
2,"NCCOc1cccc(C(=O)/C=C/c2ccc(OCC(=O)O)cc2)c1 [Example 1, (E)-4-[3-((3-(2-Aminoethoxy)phenyl))-3-oxo-1-propenyl]phenoxyacetic acid.hydrochloride]",10 to 50 µM
3,"CCOC(=O)c1cc(/C=C/C(=O)c2cccc(CC(C)N)c2)ccc1OCC(=O)O (stereo not shown) [Example 101, (E)-Ethyl 5-[3-((3-(2-aminopropyl)phenyl))-3-oxo-1-propenyl]-2(carboxymethoxy)benzoate.trifluoroacetate]",10 to 50 µM
